Format in all cases: functional
Assay [1] relates to SW837. Nature of the assay: Synergistic antitumor activity against human SW837 cells assessed as tumor regression at 60 mg/kg, po once daily for 18 days co-administered with sotorasib relative to control. The settings on record: time 18 day.
For assay [2], the system named is SW837. The assay is described as follows: Antitumor activity against human SW837 cells assessed as inhibition of cell growth at 1000 nM incubated for 72 hrs by Celltiter Glo assay relative to control. Background: ATP-based viability assays read luminescence as a measure of living cells.
Assay [3] has as its system SW837. The assay is described as follows: Synergistic antitumor activity against human SW837 cells assessed as tumor growth inhibition at 60 mg/kg, po once daily for 18 days co-administered with sotorasib relative to control. The note with it: SW837, 432 h, time 18 day, read-out: TGI.
Assay [4] deals with NCI-H23. Nature of the assay: Antitumor activity against human NCI-H23 cells assessed as inhibition of cell growth at 120 nM incubated for 72 hrs by Celltiter Glo assay relative to control.
Assay [5] relates to MIA PaCa-2. Nature of the assay: Synergistic antitumor activity against human MIA PaCa-2 cells assessed as inhibition of cell growth at 1000 nM incubated for 72 hrs in the presence of sotorasib by Celltiter Glo assay.
The test system of assay [6] is NCI-H23. The assay is described as follows: Synergistic antitumor activity against human NCI-H23 cells assessed as inhibition of cell growth at 120 nM incubated for 72 hrs in presence of sotorasib by Celltiter Glo assay relative to control.
For assay [7], the system named is NCI-H358. The assay is described as follows: Antitumor activity against human NCI-H358 cells assessed as inhibition of cell growth at 300 nM incubated for 72 hrs by Celltiter Glo assay relative to control.
In assay [8] the test system is SW837. The assay is described as follows: Synergistic antitumor activity against human SW837 cells assessed as inhibition of cell growth at 1000 nM incubated for 72 hrs in presence of sotorasib by Celltiter Glo assay relative to control.
Assay [9] concerns SW837. The assay is described as follows: Antitumor activity against human SW837 cells xenografted in mouse assessed as tumor growth inhibition at 60 mg/kg, po administered once daily for 18 days relative to control. The settings on record: SW837, 432 h, time 18 day, read-out: TGI. In general terms: In xenograft studies the graft and the host belong to different species.
The test system of assay [10] is MIA PaCa-2. The assay is described as follows: Antitumor activity against human MIA PaCa-2 cells assessed as inhibition of cell growth at 1000 nM incubated for 72 hrs by Celltiter Glo assay.
For assay [11], the system named is NCI-H358. The assay is described as follows: Synergistic antitumor activity against human NCI-H358 cells assessed as inhibition of cell growth at 300 nM incubated for 72 hrs in presence of sotorasib by Celltiter Glo assay relative to control.
Assay [12] concerns NCI-H23. The assay is described as follows: Antitumor activity against human NCI-H23 cells assessed as inhibition of cell growth at 40 nM incubated for 72 hrs by Celltiter Glo assay relative to control.
Assay [13] has as its system MIA PaCa-2. Nature of the assay: Antitumor activity against human MIA PaCa-2 cells assessed as inhibition of cell growth at 350 nM incubated for 72 hrs by Celltiter Glo assay.
In assay [14] the test system is NCI-H358. Nature of the assay: Antitumor activity against human NCI-H358 cells assessed as inhibition of cell growth at 10 nM incubated for 72 hrs by Celltiter Glo assay relative to control.
Assay [15] has as its system SW837. Nature of the assay: Antitumor activity against human SW837 cells xenografted in mouse assessed as tumor growth inhibition at 30 mg/kg, po administered once daily for 18 days relative to control. The note with it: SW837, 432 h, time 18 day, read-out: TGI.
The test system of assay [16] is SW837. Nature of the assay: Antitumor activity against human SW837 cells assessed as inhibition of cell growth at 12 nM incubated for 72 hrs by Celltiter Glo assay relative to control.

What is called inhibition is how much of the control response was suppressed.

As to `C=CCn1c(=O)c2cnc(Nc3ccc(N4CCN(C)CC4)cc3)nc2n1-c1ccc2c(n1)[C@@](O)(CC)CC2` [AZENOSERTIB], in the assay with SW837 [1], the Activity stood at 23%. For the same molecule, the inhibition at 1 µM in the assay with SW837 [2] turned out to be 28.8%; with MIA PaCa-2 [5], 76%; in the assay on SW837 [8] it was 45.4%; in the assay with MIA PaCa-2 [10], 47%. The results for the inhibition in vivo at 60 mg/kg in the assay on SW837 [3] and in the assay on SW837 [9] were 109% and 72%, respectively. Moreover, the inhibition at 0.12 µM with NCI-H23 [4] turned out to be 16.5%; in the assay on NCI-H23 [6] it was 53%. Further, the inhibition at 0.3 µM in the assay on NCI-H358 [7] was found to be 31.5%; in the assay with NCI-H358 [11] it was 55.6%.
Regarding `C=CC(=O)N1CCN(c2nc(=O)n(-c3c(C)ccnc3C(C)C)c3nc(-c4c(O)cccc4F)c(F)cc23)[C@@H](C)C1` [SOTORASIB], the inhibition at 0.04 µM in the assay on NCI-H23 [12] was 27.8%. Moreover, the inhibition at 0.35 µM in the assay on MIA PaCa-2 [13] turned out to be 39%. Moreover, the inhibition at 0.01 µM in the assay with NCI-H358 [14] was found to be 24%. In addition, the inhibition in vivo at 30 mg/kg in the assay on SW837 [15] was determined as 80%. In addition, the inhibition at 0.012 µM with SW837 [16] was determined as 20.7%.

The record behind these values is ChEMBL document CHEMBL5357019, “Targeted Combination Therapies: A New Frontier in the Treatment of TP53 and KRAS Mutation-Associated Cancers” (2024).
